Measurements published in US20230407243A1, “GENETIC PLATFORM TO INVESTIGATE THE FUNCTIONS OF BACTERIAL DRUG EFFLUX PUMPS” (priority 2022, published 2023).
Like-named read-outs stand apart in the source and are kept apart here.

How the values were obtained:
Assay type in all cases: cell-based, Escherichia coli
EKO-35 araC::acrBD408A = test: MIC susceptibility profiling, efflux platform; settings: for MIC: Escherichia coli, Table 13B, non-porinated, technical duplicate, read-out: Minimum Inhibitory Concentration, EKO-35 araC::acrBD408A
Outline: (§1)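 Broth MIC in cation-adjusted Mueller-Hinton (MHB II) following twofold compound titration in duplicate. Bacteria were prepared at OD600 ~1.0 in PBS and diluted 1/2000. Endpoint OD600 after 18 h at 37 °C was corrected using the pre-incubation reading.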

EKO-35 araC::acrB = test: MIC susceptibility profiling, efflux platform; settings: for MIC: Escherichia coli, Table 13A, non-porinated, technical duplicate, read-out: Minimum Inhibitory Concentration, EKO-35 araC::acrB
Outline: as §1

EKO-35 araC::acrD = test: MIC susceptibility profiling, efflux platform; settings: for MIC: Escherichia coli, Table 13A, non-porinated, technical duplicate, read-out: Minimum Inhibitory Concentration, EKO-35 araC::acrD
Outline: as §1

EKO-35 araC::acrEF = test: MIC susceptibility profiling, efflux platform; settings: for MIC: Escherichia coli, Table 13A, non-porinated, technical duplicate, read-out: Minimum Inhibitory Concentration, EKO-35 araC::acrEF
Outline: as §1

EKO-35 araC::emrAB = test: MIC susceptibility profiling, efflux platform; settings: for MIC: Escherichia coli, Table 13B, non-porinated, technical duplicate, read-out: Minimum Inhibitory Concentration, EKO-35 araC::emrAB
Outline: as §1

EKO-35 araC::emrKY = test: MIC susceptibility profiling, efflux platform; settings: for MIC: Escherichia coli, Table 13B, non-porinated, technical duplicate, read-out: Minimum Inhibitory Concentration, EKO-35 araC::emrKY
Outline: as §1

EKO-35 araC::macAB = test: MIC susceptibility profiling, efflux platform
Outline: as §1

EKO-35 araC::mdtBC = test: MIC susceptibility profiling, efflux platform; settings: for MIC: Escherichia coli, Table 13B, non-porinated, technical duplicate, read-out: Minimum Inhibitory Concentration, EKO-35 araC::mdtBC
Outline: as §1

EKO-35 araC::mdtEF = test: MIC susceptibility profiling, efflux platform; settings: for MIC: Escherichia coli, Table 13A, non-porinated, technical duplicate, read-out: Minimum Inhibitory Concentration, EKO-35 araC::mdtEF
Outline: as §1

[1] = test system: EKO-35 araC::mexCD (MexCD from P. aeruginosa); test: MIC susceptibility profiling, efflux platform; settings: for MIC: Table 13B, non-porinated, technical duplicate, read-out: Minimum Inhibitory Concentration, EKO-35 araC::mexCD
Outline: as §1

wild-type (WT) K-12-Pore = test: microbe, parasite or virus in culture; settings: Escherichia coli, technical duplicate
Outline: (§2)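 Strains carry the fhuA ΔC/Δ4L pore integrated between glmS and pstS under a constitutive promoter, with pore activity checked by vancomycin susceptibility. Overnight LB cultures were adjusted in PBS pH 7.4 to OD600 ~1.0 and diluted 1/2000 into MHB II. 2-fold compound titrations were read by OD600 after 18 h at 37 °C.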

ΔtolC-Pore = test: microbe, parasite or virus in culture; settings: for MIC: Escherichia coli, 18 h, read-out: Minimum inhibitory concentration, ΔtolC-Pore; for Minimum inhibitory concentration (MIC), Pore ΔtolC: Table 10, with pore, technical duplicate
Outline: as §2

EKO-35-Pore = test: MIC susceptibility profiling, porinated strain; settings: for Fold changes of MICs: EKO-35-Pore compared to EKO-35-Pore (reference); for MIC: Escherichia coli, technical duplicate
Outline: as §2

EKO-35 araC::acrB Pore = test: MIC susceptibility profiling, porinated efflux platform
Outline: as §2

[2] = test system: EKO-35 araC::acrBD408A Pore; test: as above; settings: for MIC: Escherichia coli, EKO-35 araC::acrBD408A Pore, technical duplicate, read-out: Minimum inhibitory concentration
Outline: as §2

EKO-35 araC::acrD Pore = test: as above; settings: for MIC: Escherichia coli, Table 14A, porinated, technical duplicate, read-out: Minimum inhibitory concentration, EKO-35 araC::acrD Pore
Outline: as §2

EKO-35 araC::acrEF Pore = test: as above; settings: for MIC: Escherichia coli, Table 14A, porinated, technical duplicate, read-out: Minimum inhibitory concentration, EKO-35 araC::acrEF Pore
Outline: as §2

EKO-35 araC::emrAB Pore = test: as above; settings: for MIC: Escherichia coli, EKO-35 araC::emrAB Pore, technical duplicate, read-out: Minimum inhibitory concentration
Outline: as §2

[3] = Table 10, with pore, read-out: Minimum inhibitory concentration (MIC), Pore K-12
[4] = Table 10, with pore, read-out: Minimum inhibitory concentration (MIC), Pore EKO-35
[5] = Table 14A, porinated, read-out: Minimum inhibitory concentration, EKO-35-Pore

Structure (SMILES)	MIC (EKO-35 araC::acrBD408A)	MIC (EKO-35 araC::acrB)	MIC (EKO-35 araC::acrD)	MIC (EKO-35 araC::acrEF)	MIC (EKO-35 araC::emrAB)	MIC (EKO-35 araC::emrKY)	MIC (EKO-35 araC::mdtBC)	MIC (EKO-35 araC::mdtEF)	MIC [1]	MIC (wild-type (WT) K-12-Pore; [3])	MIC (ΔtolC-Pore)	Minimum inhibitory concentration (MIC), Pore ΔtolC (ΔtolC-Pore)	Fold changes of MICs (EKO-35-Pore)	MIC (EKO-35-Pore; [4])	MIC (EKO-35-Pore; [5])	MIC [2]	MIC (EKO-35 araC::acrD Pore)	MIC (EKO-35 araC::acrEF Pore)	MIC (EKO-35 araC::emrAB Pore)	further results
CC1(C)S[C@@H]2[C@H](NC(=O)[C@H](N)c3ccccc3)C(=O)N2[C@H]1C(=O)O [ampicillin]	25 µg/mL	100 µg/mL	100 µg/mL	50 µg/mL	25 µg/mL	25 µg/mL	25 µg/mL	25 µg/mL	25 µg/mL	12.5 µg/mL	1.56 µg/mL	1.563 µg/mL	1 fold	1.56 µg/mL	1.56 µg/mL	0.781 µg/mL	25 µg/mL	3.12 µg/mL	0.781 µg/mL	Fold change of MICs (EKO-35 araC::acrBD408A; EKO-35 araC::acrBD408A compared to EKO-35): 1 fold; Fold change of MICs (EKO-35 araC::acrB; EKO-35 araC::acrB compared to EKO-35): 4 fold; Fold change of MICs (EKO-35 araC::acrD; EKO-35 araC::acrD compared to EKO-35): 4 fold; Fold change of MICs (EKO-35 araC::acrEF; EKO-35 araC::acrEF compared to EKO-35): 2 fold; Fold change of MICs (EKO-35 araC::emrAB; EKO-35 araC::emrAB compared to EKO-35): 1 fold; Fold change of MICs (EKO-35 araC::emrKY; EKO-35 araC::emrKY compared to EKO-35): 1 fold; Fold change of MICs (EKO-35 araC::macAB; EKO-35 araC::macAB compared to EKO-35): 1 fold; Fold change of MICs (EKO-35 araC::mdtBC; EKO-35 araC::mdtBC compared to EKO-35): 1 fold; Fold change of MICs (EKO-35 araC::mdtEF; EKO-35 araC::mdtEF compared to EKO-35): 1 fold; Fold change of MICs ([1]; EKO-35 araC::mexCD compared to EKO-35): 1 fold; Fold changes of MICs (EKO-35 araC::acrB Pore; EKO-35 araC::acr-B Pore compared to EKO-35-Pore): 8 fold; Fold changes of MICs ([2]; EKO-35 araC::acrBD408A Pore compared to EKO-35-Pore): 1 fold; Fold changes of MICs (EKO-35 araC::acrD Pore; EKO-35 araC::acrD Pore compared to EKO-35-Pore): 16 fold; Fold changes of MICs (EKO-35 araC::acrEF Pore; EKO-35 araC::acrEF Pore compared to EKO-35-Pore): 2 fold; Fold changes of MICs (EKO-35 araC::emrAB Pore; EKO-35 araC::emrAB Pore compared to EKO-35-Pore): 1 fold
CO[C@H]1/C=C/O[C@@]2(C)Oc3c(C)c(O)c4c(O)c(c(/C=N/N5CCN(C)CC5)c(O)c4c3C2=O)NC(=O)/C(C)=C\C=C\[C@H](C)[C@H](O)[C@@H](C)[C@@H](O)[C@@H](C)[C@H](OC(C)=O)[C@@H]1C [rifampicin]	3.12 µg/mL	6.25 µg/mL	6.25 µg/mL	6.25 µg/mL	6.25 µg/mL	6.25 µg/mL	6.25 µg/mL	6.25 µg/mL	3.12 µg/mL	0.781 µg/mL	0.391 µg/mL	0.391 µg/mL	1 fold	0.391 µg/mL	0.391 µg/mL	0.195 µg/mL	0.391 µg/mL	0.391 µg/mL	0.195 µg/mL	MIC (EKO-35 araC::macAB; Escherichia coli, Table 13B, non-porinated, technical duplicate, read-out: Minimum Inhibitory Concentration, EKO-35 araC::macAB): 6.25 µg/mL; MIC (wild-type (WT) K-12-Pore; Table 14A, porinated, read-out: Minimum inhibitory concentration, K-12 (WT)-Pore): 0.781 µg/mL; MIC (EKO-35 araC::acrB Pore; Escherichia coli, Table 14A, porinated, technical duplicate, read-out: Minimum inhibitory concentration, EKO-35 araC::acrB Pore): 1.56 µg/mL
